One data set deals with Calu-6. In words: Cell proliferation-inhibiting activity (ATP in viable cells, CellTiter-Glo), Calu-6. The data set is classed as cell-based, human. To be noted: Calu-6, 96 h, read-out: Calu-6 IC50.
A short description of data set [1]: Human liver microsome stability. As to conditions: human liver microsomes, pH 7.4. The data set is classed as in vitro ADME.
The subject of a further data set is A549. The experiment in a line: Cell proliferation-inhibiting activity (ATP in viable cells, CellTiter-Glo), A549. The format is cell-based, human. As to conditions: A549, 96 h, read-out: A549 IC50.
The next data set deals with T1, BRAF (Homo sapiens, UniProt P15056).
T1 construct: purchased Eurofins Genomics KK; (BRAF); Thermo Fisher Scientific Inc. (MEK1)
In words: BRAF-inhibiting activity, time-resolved fluorescence-fluorescence resonance energy transfer assay. The data set is classed as biochemical. The protocol: The BRAF-inhibiting activity of the compounds listed in Table 3 below was evaluated by the time-resolved fluorescence-fluorescence resonance energy transfer assay as described below.

The next data set relates to NCI-H2122. The experiment in a line: Cell proliferation-inhibiting activity (ATP in viable cells, CellTiter-Glo), NCI-H2122. The data set is classed as cell-based, human. To be noted: NCI-H2122, 96 h, read-out: NCI-H2122 IC50. In general terms: ATP-based viability assays read luminescence as a measure of living cells.
Another data set deals with T2, MEK1 (Homo sapiens, UniProt Q02750).
T2 construct: purchased Thermo Fisher Scientific Inc. (MEK1, CRAF); Carna Biosciences, Inc. (ERK2)
In words: MEK1-inhibiting activity, fluorescent polarization method (CRAF/MEK1/ERK2 cascade, IMAP). The data set is classed as biochemical. As to conditions: Table 3; read-out: MEK1 IC50. On the procedure: The MEK1-inhibiting activity of the compounds listed in Table 3 below were evaluated by the fluorescent polarization method as described below.

Setting [2] is: human lung cancer cells, 4 days.

pIC50: −log10 of the molar value. Like-named read-outs stand apart in the source and are kept apart here.

T1 sequence (P15056 417-766 limits assumed): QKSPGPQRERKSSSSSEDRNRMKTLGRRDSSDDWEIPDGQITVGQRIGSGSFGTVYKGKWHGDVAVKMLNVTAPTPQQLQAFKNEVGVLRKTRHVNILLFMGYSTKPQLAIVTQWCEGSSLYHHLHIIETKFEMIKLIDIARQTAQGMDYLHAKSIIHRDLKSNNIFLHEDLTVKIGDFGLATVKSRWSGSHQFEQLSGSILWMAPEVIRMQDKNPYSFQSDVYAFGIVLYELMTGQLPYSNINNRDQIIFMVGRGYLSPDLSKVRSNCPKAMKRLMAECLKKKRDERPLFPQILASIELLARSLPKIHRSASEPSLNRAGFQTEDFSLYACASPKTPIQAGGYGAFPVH
T2 sequence (Q02750 whole entry): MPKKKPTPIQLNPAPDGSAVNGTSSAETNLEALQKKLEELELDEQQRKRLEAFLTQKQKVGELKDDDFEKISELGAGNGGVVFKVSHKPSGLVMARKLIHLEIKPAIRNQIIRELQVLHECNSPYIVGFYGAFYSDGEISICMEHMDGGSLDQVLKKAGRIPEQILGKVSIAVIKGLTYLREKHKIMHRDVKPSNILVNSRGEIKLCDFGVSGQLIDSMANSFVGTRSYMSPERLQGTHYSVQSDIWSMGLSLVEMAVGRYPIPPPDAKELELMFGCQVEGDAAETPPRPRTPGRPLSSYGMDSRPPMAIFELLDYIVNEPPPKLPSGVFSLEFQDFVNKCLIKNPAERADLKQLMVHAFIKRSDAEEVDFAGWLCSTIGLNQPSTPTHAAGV

For orientation: pIC50 means the IC50 on a negative log10 scale, so that one unit is a factor of ten. By microsomal CLint is commonly meant the capacity of the preparation to metabolise the compound, expressed as a volume cleared per time. As for `NS(=O)(=O)Nc1nccc(Cc2cc(C(=O)NC3CC3)c(Nc3ccc(I)cc3F)c(F)c2F)c1F` [Compound A-3, N-Cyclopropyl-3,4-difluoro-2-(2-fluoro-4-iodoanilino)-5-[[3-fluoro-2-(sulfamoylamino)pyridin-4-yl]methyl]benzamide], the pIC50 is 7.55 in the data set with Calu-6 (setting [2]); 7.60 with A549 (setting [2]); 8.30 on BRAF (read-out: BRAF IC50; Table 3); 7.89 in the data set with NCI-H2122 (setting [2]); 7.51 at MEK1. The same molecule had a microsomal CLint at 0.99 µM in data set [1] of 10 µL/min/mg.
Regarding `CCNS(=O)(=O)Nc1nccc(Cc2cc(C(=O)NC3CC3)c(Nc3ccc(I)cc3F)c(F)c2F)c1F` [Compound A-4, N-cyclopropyl-5-[[2-(ethylsulfamoylamino)-3-fluoropyridin-4-yl]methyl]-3,4-difluoro-2-(2-fluoro-4-iodoanilino)benzamide], the negative-log IC50 (pIC50) with Calu-6 (setting [2]) was 8.15; with A549 (setting [2]), 8.30; at BRAF (read-out: BRAF IC50; Table 3) it was 8.70; in the data set on NCI-H2122 (setting [2]) it was 9.00; at MEK1 it was 7.77. This molecule also registered a microsomal CLint at 0.99 µM in data set [1] of 21 µL/min/mg.
Turning to `O=C(NC1CC1)c1cc(Cc2ccnc(NS(=O)(=O)NC3CC3)c2F)c(F)c(F)c1Nc1ccc(I)cc1F` [Compound A-5, N-Cyclopropyl-5-[[2-(cyclopropylsulfamoylamino)-3-fluoropyridin-4-yl]methyl]-3,4-difluoro-2-(2-fluoro-4-iodoanilino)benzamide], the negative logarithm of the IC50 (pIC50) in the data set on Calu-6 (setting [2]) was 7.92; in the data set on A549 (setting [2]) it was 8.30; at BRAF (read-out: BRAF IC50; Table 3), 8.30; in the data set with NCI-H2122 (setting [2]), 9.00; on MEK1, 8.00. The microsomal CLint at 0.99 µM in data set [1] came to 36 µL/min/mg.
`O=C(NC1CC1)c1cc(Cc2ccnc(NS(=O)(=O)NCCF)c2F)c(F)c(F)c1Nc1ccc(I)cc1F` [Compound A-6, N-cyclopropyl-3,4-difluoro-5-[[3-fluoro-2-(2-fluoroethylsulfamoylamino)pyridin-4-yl]methyl]-2-(2-fluoro-4-iodoanilino)benzamide]: the pIC50 in the data set on Calu-6 (setting [2]) was 7.72; in the data set on A549 (setting [2]), 7.77; on BRAF (read-out: BRAF IC50; Table 3), 8.00; in the data set on NCI-H2122 (setting [2]), 8.52; on MEK1, 7.92. Besides, the microsomal CLint at 0.99 µM in data set [1] stood at 20 µL/min/mg.
In the case of `CNC(=O)c1cc(Cc2ccnc(NS(=O)(=O)NC)c2F)c(F)c(F)c1Nc1ccc(I)cc1F` [Compound A-7, 3,4-Difluoro-2-(2-fluoro-4-iodoanilino)-5-[[3-fluoro-2-(methylsulfamoylamino)pyridin-4-yl]methyl]-N-methylbenzamide], the pIC50 with Calu-6 (setting [2]) is 7.74; in the data set with A549 (setting [2]), 8.70; at BRAF (read-out: BRAF IC50; Table 3) it was 8.30; in the data set with NCI-H2122 (setting [2]), 9.00; on MEK1 it was 7.74. In addition, the microsomal CLint at 0.99 µM in data set [1] amounted to 28 µL/min/mg.
Turning to `CNS(=O)(=O)Nc1nccc(Cc2cc(C(=O)NOC(C)(C)C)c(Nc3ccc(I)cc3F)c(F)c2F)c1F` [Compound A-8, 3,4-difluoro-2-(2-fluoro-4-iodoanilino)-5-[[3-fluoro-2-(methylsulfamoylamino)pyridin-4-yl]methyl]-N-[(2-methylpropan-2-yl)oxy]benz amide], the negative logarithm of the IC50 (pIC50) in the data set with Calu-6 (setting [2]) was 8.70; in the data set on A549 (setting [2]), 9.40; at BRAF (read-out: BRAF IC50; Table 3), 8.40; in the data set with NCI-H2122 (setting [2]), 10.00; at MEK1, 8.52. Also, in data set [1], the microsomal CLint at 0.99 µM was 33 µL/min/mg.
As to `COCCNS(=O)(=O)Nc1nccc(Cc2cc(C(=O)NOC(C)(C)C)c(Nc3ccc(I)cc3F)c(F)c2F)c1F` [Compound A-9, 3,4-Difluoro-2-(2-fluoro-4-iodoanilino)-5-[[3-fluoro-2-(2-methoxyethylsulfamoylamino)pyridin-4-yl]methyl]-N-[(2-methylpropan-2-yl)oxy]be nzamide], the pIC50 is 8.15 with Calu-6 (setting [2]); 8.70 in the data set with A549 (setting [2]); 8.40 at BRAF (read-out: BRAF IC50; Table 3); 9.40 in the data set with NCI-H2122 (setting [2]); 8.40 at MEK1. Besides, the intrinsic clearance (microsomal CLint) at 0.99 µM in data set [1] is 56 µL/min/mg.
Turning to `CC(C)ONC(=O)c1cc(Cc2ccnc(NS(=O)(=O)NC3(C)CCC3)c2F)c(F)c(F)c1Nc1ccc(I)cc1F` [Compound A-12, 3,4-Difluoro-2-(2-fluoro-4-iodoanilino)-5-[[3-fluoro-2-[(1-methylcyclobutyl)sulfamoylamino]pyridin-4-yl]methyl]-N-propan-2-yloxybenzamide], the pIC50 in the data set on Calu-6 (setting [2]) is 7.74; in the data set on A549 (setting [2]), 8.22; on BRAF (read-out: BRAF IC50; Table 3) it was 8.22; in the data set on NCI-H2122 (setting [2]) it was 8.30; at MEK1, 7.89. For the same molecule, in data set [1], the microsomal CLint at 0.99 µM came out at 121 µL/min/mg.
On to `CNS(=O)(=O)Nc1nccc(Cc2cc(C(=O)NOC)c(Nc3ccc(I)cc3F)c(F)c2F)c1F` [Compound A-13, 3,4-difluoro-2-(2-fluoro-4-iodoanilino)-5-[[3-fluoro-2-(methylsulfamoylamino)pyridin-4-yl]methyl]-N-methoxybenzamide], for which the pIC50 with Calu-6 (setting [2]) was 8.52; with A549 (setting [2]) it was 9.00; at BRAF (read-out: BRAF IC50; Table 3), 8.52; in the data set on NCI-H2122 (setting [2]) it was 9.52; on MEK1, 9.00. Further, the microsomal CLint at 0.99 µM in data set [1] is 31 µL/min/mg.
For the molecule `COCCNS(=O)(=O)Nc1nccc(Cc2cc(C(=O)NOC)c(Nc3ccc(I)cc3F)c(F)c2F)c1F` [Compound A-14, 3,4-Difluoro-2-(2-fluoro-4-iodoanilino)-5-[[3-fluoro-2-(2-methoxyethylsulfamoylamino)pyridin-4-yl]methyl]-N-methoxybenzamide], the pIC50 in the data set on Calu-6 (setting [2]) is 7.57; with A549 (setting [2]), 7.96; at BRAF (read-out: BRAF IC50; Table 3), 8.52; with NCI-H2122 (setting [2]), 9.00; at MEK1, 8.70. Further, in data set [1], the microsomal CLint at 0.99 µM was determined as 39 µL/min/mg.
As for `CONC(=O)c1cc(Cc2ccnc(NS(=O)(=O)NC3(C)CCC3)c2F)c(F)c(F)c1Nc1ccc(I)cc1F` [Compound A-15, 3,4-difluoro-2-(2-fluoro-4-iodoanilino)-5-[[3-fluoro-2-[(1-methylcyclobutyl)sulfamoylamino]pyridin-4-yl]methyl]-N-methoxybenzamide], the pIC50 in the data set on Calu-6 (setting [2]) was 8.30; in the data set with A549 (setting [2]), 8.70; on BRAF (read-out: BRAF IC50; Table 3), 8.40; in the data set with NCI-H2122 (setting [2]), 9.00; on MEK1 it was 8.10. The microsomal CLint at 0.99 µM in data set [1] was 57 µL/min/mg.
Take `CNS(=O)(=O)Nc1nccc(Cc2cc(C(N)=O)c(Nc3ccc(SC)cc3F)c(F)c2F)c1F` [Compound A-18, 3,4-difluoro-5-[[3-fluoro-2-(methylsulfamoylamino)pyridin-4-yl]methyl]-2-(2-fluoro-4-methylsulfanylanilino)benzamide]: the negative-log IC50 (pIC50) is 8.15 with Calu-6 (Homo sapiens); 8.30 with A549 (Homo sapiens); 8.40 at BRAF (Table 3; read-out: BRAF IC50); 8.70 in the data set on NCI-H2122 (Homo sapiens); 8.10 at MEK1. The molecule further yielded a microsomal CLint at 0.99 µM in data set [1] of 53 µL/min/mg.
As to `COCC(C)(C)NS(=O)(=O)Nc1nccc(Cc2cc(C(N)=O)c(Nc3ccc(I)cc3F)c(F)c2F)c1F` [Compound A-24, 3,4-Difluoro-2-(2-fluoro-4-iodoanilino)-5-[[3-fluoro-2-[(1-methoxy-2-methylpropan-2-yl)sulfamoylamino]pyridin-4-yl]methyl]benzamide], the pIC50 was 7.29 with Calu-6 (setting [2]); 7.96 in the data set on A549 (setting [2]); 8.52 at BRAF (read-out: BRAF IC50; Table 3); 8.40 with NCI-H2122 (setting [2]); 6.89 at MEK1. For the same molecule, in data set [1], the microsomal CLint at 0.99 µM came to 48 µL/min/mg.
Take `CNS(=O)(=O)Nc1nccc(Cc2cc(C(N)=O)c(Nc3ccc(I)cc3F)c(F)c2F)c1F` [Compound A-25, 3,4-difluoro-2-(2-fluoro-4-iodoanilino)-5-[[3-fluoro-2-(methylsulfamoylamino)pyridin-4-yl]methyl]benzamide]: the pIC50 was 8.70 with Calu-6 (setting [2]); 9.30 in the data set with A549 (setting [2]); 8.70 on BRAF (read-out: BRAF IC50; Table 3); 9.70 in the data set with NCI-H2122 (setting [2]); 8.30 at MEK1. Also, in data set [1], the microsomal CLint at 0.99 µM amounted to 7 µL/min/mg.
As for `NC(=O)c1cc(Cc2ccnc(NS(=O)(=O)NC3CC3)c2F)c(F)c(F)c1Nc1ccc(I)cc1F` [Compound A-30, 5-[[2-(cyclopropylsulfamoylamino)-3-fluoropyridin-4-yl]methyl]-3,4-difluoro-2-(2-fluoro-4-iodoanilino)benzamide], the negative logarithm of the IC50 (pIC50) with Calu-6 (setting [2]) is 8.10; in the data set on A549 (setting [2]) it was 8.52; on BRAF (read-out: BRAF IC50; Table 3) it was 8.10; in the data set on NCI-H2122 (setting [2]), 9.00; at MEK1, 8.05. This molecule also displayed an intrinsic metabolic clearance (microsomal CLint) at 0.99 µM in data set [1] of 10 µL/min/mg.
As for `CC(C)NS(=O)(=O)Nc1nccc(Cc2cc(C(N)=O)c(Nc3ccc(I)cc3F)c(F)c2F)c1F` [Compound A-31, 3,4-difluoro-2-(2-fluoro-4-iodoanilino)-5-[[3-fluoro-2-(propan-2-ylsulfamoylamino)pyridin-4-yl]methyl]benzamide], the pIC50 with Calu-6 (setting [2]) was 7.51; in the data set with A549 (setting [2]), 7.70; on BRAF (read-out: BRAF IC50; Table 3), 8.22; in the data set on NCI-H2122 (setting [2]) it was 8.15; on MEK1, 7.31. Besides, the microsomal CLint at 0.99 µM in data set [1] was 9 µL/min/mg.

The record behind these values is patent EP4725941A1, “ARYLAMIDE DERIVATIVE HAVING ANTITUMOR ACTIVITY” (priority 2020, dated 2021).
